Earlier results, collected in US9849088B2, “Depot formulations of a hydrophobic active ingredient and methods for preparation thereof” (PAINREFORM LTD., priority 2012, dated 2017).

Conditions: comparison value

Question: Which Toxic threshold (plasma) does the source give for CCCN1CCCC[C@H]1C(=O)Nc1c(C)cccc1C [ropivacaine] here?
Answer: 0.6 µg/mL
